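Where inhibition never reached the appropriate level, the endpoint shown equals the highest concentration tested. Otherwise, values were interpolated linearly from a five-concentration, 48-hour dose response in 96-well plates. At the GI50, growth is halved. TGI: total growth inhibition.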
Key:
Assay in all cases: NCI-60 cell line screen, 48 h
CCRF-CEM leukemia = system: CCRF-CEM leukemia
HL-60(TB) leukemia = system: HL-60(TB) leukemia
NCI-H460 lung = system: NCI-H460 lung
OVCAR-3 ovarian = system: OVCAR-3 ovarian
SF-539 CNS = system: SF-539 CNS
SK-MEL-2 melanoma = system: SK-MEL-2 melanoma
SK-MEL-5 melanoma = system: SK-MEL-5 melanoma
SN12C renal = system: SN12C renal
U251 CNS = system: U251 CNS
UO-31 renal = system: UO-31 renal

Structure (SMILES) | TGI (CCRF-CEM leukemia) [µM] | TGI (HL-60(TB) leukemia) [µM] | TGI (NCI-H460 lung) [µM] | TGI (OVCAR-3 ovarian) [µM] | TGI (SF-539 CNS) [µM] | TGI (SK-MEL-2 melanoma) [µM] | TGI (SK-MEL-5 melanoma) [µM] | TGI (SN12C renal) [µM] | TGI (U251 CNS) [µM] | TGI (UO-31 renal) [µM] | GI50 (CCRF-CEM leukemia) [µM] | GI50 (HL-60(TB) leukemia) [µM] | GI50 (NCI-H460 lung) [µM] | GI50 (OVCAR-3 ovarian) [µM] | GI50 (SF-539 CNS) [µM] | GI50 (SK-MEL-2 melanoma) [µM] | GI50 (SK-MEL-5 melanoma) [µM] | GI50 (SN12C renal) [µM] | GI50 (U251 CNS) [µM] | GI50 (UO-31 renal) [µM]
O=C(Cc1nc2ccccc2s1)C(=O)Nc1cccc(C(F)(F)F)c1 | > 100 | > 100 | > 100 | > 100 | > 100 | > 100 | > 100 | > 100 | > 100 | > 100 | – | – | – | – | – | – | – | – | – | –
CN(C)CCN=c1nc2c(c(N)n1-c1ccccc1)c(=S)n(-c1ccccc1)c(=S)n2-c1ccccc1 | – | 3.3 | 6.29 | 11.6 | 3.29 | 3.4 | 2.93 | 20.5 | 3.19 | 3.83 | 4.68 | 1.52 | 2.33 | 2.89 | 1.68 | 1.73 | 1.49 | 6.21 | 1.4 | 1.48
COc1cccc(C=NC23CC4CC(CC(C4)C2)C3)c1 | > 100 | > 100 | > 100 | > 100 | > 100 | > 100 | > 100 | > 100 | > 100 | > 100 | – | – | – | – | – | – | – | – | – | –
C[C@]12CC[C@H](OC(=O)Nc3ccccc3)CC1=CC[C@@H]1C2CC[C@]2(C)/C(=N/OC(=O)Nc3ccccc3)CCC12 (some centres undefined) | > 100 | > 100 | > 100 | > 100 | > 100 | > 100 | > 100 | 3.32 | > 100 | 7.91 | – | – | – | – | – | – | – | – | – | –
COc1ccc(OCC(=O)O)c2c1CCC(C)C2=O (centres undefined) | > 100 | > 100 | > 100 | > 100 | > 100 | > 100 | > 100 | > 100 | > 100 | > 100 | – | – | – | – | – | – | – | – | – | –
CC(C)(C)OC(=O)NCCCCCCCCCCCCn1c2c(c3ccccc3c1=O)C(=O)c1ccccc1-2 | > 100 | > 100 | > 100 | > 100 | 61.9 | 38.2 | > 100 | > 100 | > 100 | > 100 | 43.3 | > 100 | > 100 | > 100 | 20.6 | 18.1 | > 100 | > 100 | 36 | > 100
COC1CCC(OC)C(c2nc3sccn3c2/C=N/N=C(N)N)C1 (centres undefined) | > 64.7 | > 36.7 | > 76.5 | 36.3 | 44 | > 62.4 | 54.3 | 56.3 | 73.4 | > 100 | 24.8 | 1.21 | 27.7 | 7.76 | 20.4 | 25.7 | 20.2 | 22.4 | 38.7 | > 67.5
O=C1N=C2N=C(c3ccc(Cl)cc3)N(c3ccc(Cl)cc3)N2Sc2ccccc21 | > 100 | > 100 | > 100 | > 100 | > 100 | > 100 | > 100 | > 100 | 87.2 | > 100 | – | – | – | – | – | – | – | – | – | –
O=C(NCCCN1CCN(CCCNC(=O)Nc2cc(Cl)ccc2Cl)CC1)Nc1cc(Cl)ccc1Cl | > 100 | > 100 | > 100 | > 100 | > 100 | > 100 | > 100 | > 100 | > 100 | > 100 | – | – | – | – | – | – | – | – | – | –

Source: PubChem BioAssay (NCI)
